# Data reported in patent publication US5663162A, “Cephem derivatives” (priority 1993, dated 1997).
# Where two headings read alike, the source gives them in different places.
# Tests used:
# Test in all cases: Antibacterial activity test, MIC by two-fold dilution method
# S. Aureus 133 = format: cell-based, Staphylococcus aureus (methicillin-resistant, MRSA); settings: Staphylococcus aureus, read-out: Minimum Inhibition Concentration
# Protocol: (§1) The measurement was carried out in the following manner: 10^6 CFU/ml of a bacterium to be tested was inoculated on a Medium N for disc susceptibility test (manufactured by Nissui Pharmaceutical Co., Ltd.), and cultivated at 35° C. for 18 to 20 hours.
# S. Aureus 126 = format: cell-based, Staphylococcus aureus (methicillin-resistant, MRSA); settings: Staphylococcus aureus; S. Aureus 126 (MRSA); 10^6 CFU/ml, 35° C., 18 to 20 hours; read-out: Minimum Inhibition Concentration
# Protocol: as §1
# S. marcescens No. 1 = format: cell-based; settings: Serratia marcescens
# Protocol: as §1
# S. epidermidis ATCC14990 = format: cell-based; settings: Staphylococcus epidermidis
# Protocol: as §1
# P. aeruginosa GN10362 = format: cell-based; settings: Pseudomonas aeruginosa
# Protocol: as §1
# P. vulgaris GN76 = format: cell-based; settings: Proteus vulgaris
# Protocol: as §1
# E. coli NIHJ JC-2 = format: cell-based; settings: Escherichia coli
# Protocol: as §1
# M. morganii 1510/S-1 = format: cell-based; settings: Morganella morganii
# Protocol: as §1
# E. cloacae G-0008 = format: cell-based; settings: Enterobacter cloacae
# Protocol: as §1
# P. aeruginosa E-2 = format: cell-based; settings: Pseudomonas aeruginosa
# Protocol: as §1
# C. freundii GN346/16 = format: cell-based; settings: Citrobacter freundii
# Protocol: as §1
# S. Aureus 209P JC-1 = format: cell-based; settings: Staphylococcus aureus, read-out: Minimum Inhibition Concentration
# Protocol: as §1
# K. pneumoniae PC1602 = format: cell-based; settings: Klebsiella pneumoniae
# Protocol: as §1
# [1] = S. Aureus 133 (MRSA), 10^6 CFU/ml, 35° C., 18 to 20 hours
# [2] = ATCC14990, read-out: Minimum Inhibition Concentration
# [3] = GN10362, read-out: Minimum Inhibition Concentration
# [4] = GN76, read-out: Minimum Inhibition Concentration
# [5] = E2, read-out: Minimum Inhibition Concentration
# [6] = S. marcescens No. 1, 10^6 CFU/ml, 35° C., 18 to 20 hours, read-out: Minimum Inhibition Concentration
# [7] = S. epidermidis ATCC14990, 10^6 CFU/ml, 35° C., 18 to 20 hours, read-out: Minimum Inhibition Concentration
# [8] = P. vulgaris GN76, 10^6 CFU/ml, 35° C., 18 to 20 hours, read-out: Minimum Inhibition Concentration
# [9] = NIHJJC2, E. coli NIHJ JC-2, 10^6 CFU/ml, 35° C., 18 to 20 hours, read-out: Minimum Inhibition Concentration
# [10] = 1510/S1, M. morganii 1510/S-1, 10^6 CFU/ml, 35° C., 18 to 20 hours, read-out: Minimum Inhibition Concentration
# [11] = G0008, E. cloacae G-0008, 10^6 CFU/ml, 35° C., 18 to 20 hours, read-out: Minimum Inhibition Concentration
# [12] = C. freundii GN346/16, 10^6 CFU/ml, 35° C., 18 to 20 hours, read-out: Minimum Inhibition Concentration
# [13] = S. Aureus 209P JC-1, 10^6 CFU/ml, 35° C., 18 to 20 hours
# [14] = K. pneumoniae PC1602, 10^6 CFU/ml, 35° C., 18 to 20 hours, read-out: Minimum Inhibition Concentration
# [15] = P. aeruginosa GN10362, 10^6 CFU/ml, 35° C., 18 to 20 hours, read-out: Minimum Inhibition Concentration
# [16] = E2, P. aeruginosa E-2, 10^6 CFU/ml, 35° C., 18 to 20 hours, read-out: Minimum Inhibition Concentration
SMILES,MIC (S. Aureus 133; [1]),MIC (S. Aureus 126),MIC (S. epidermidis ATCC14990; [2]),MIC (P. aeruginosa GN10362; [3]),MIC (P. vulgaris GN76; [4]),MIC (P. aeruginosa E-2; [5]),MIC (S. Aureus 209P JC-1; 209P),MIC (S. marcescens No. 1; [6]),MIC (S. epidermidis ATCC14990; [7]),MIC (P. vulgaris GN76; [8]),MIC (E. coli NIHJ JC-2; [9]),MIC (M. morganii 1510/S-1; [10]),MIC (E. cloacae G-0008; [11]),MIC (C. freundii GN346/16; [12]),MIC (S. Aureus 209P JC-1; [13]),MIC (K. pneumoniae PC1602; [14]),MIC (S. Aureus 133; MRSA),MIC (P. aeruginosa GN10362; [15]),MIC (P. aeruginosa E-2; [16]),other results
"CC(C)(O/N=C(\C(=O)N[C@@H]1C(=O)N2C(C(=O)[O-])=C(C[n+]3ccccc3)CS[C@H]12)c1csc(N)n1)C(=O)O [CAZ, Ceftazidime, reference compound]",100 µg/mL,> 100 µg/mL,6.25 µg/mL,1.56 µg/mL,0.05 µg/mL,1.56 µg/mL,6.25 µg/mL,,,,,,,,,,,,,"MIC (S. marcescens No. 1; NO.1, read-out: Minimum Inhibition Concentration): 0.05 µg/mL; MIC (E. coli NIHJ JC-2; NIHJJC2, read-out: Minimum Inhibition Concentration): 0.39 µg/mL; MIC (M. morganii 1510/S-1; 1510/S1, read-out: Minimum Inhibition Concentration): 0.2 µg/mL; MIC (E. cloacae G-0008; G0008, read-out: Minimum Inhibition Concentration): 0.2 µg/mL; MIC (C. freundii GN346/16; GN346, read-out: Minimum Inhibition Concentration): 0.39 µg/mL; MIC (K. pneumoniae PC1602; PC1602, read-out: Minimum Inhibition Concentration): 0.1 µg/mL"
"CO/N=C(\C(=O)N[C@@H]1C(=O)N2C(C(=O)[O-])=C(C[n+]3cc4scc(C(N)=O)n4c3)CS[C@H]12)c1nsc(N)n1 [Example 44, (6R,7R)-7-[(Z)-2-(5-Amino-1,2,4-thiadiazol-3-yl)-2-methoxyiminoacetamide]-3-(3-carbamoylimidazo[5,1-b]thiazolium-6-yl)methyl-3-cephem-4-carboxylate]",12.5 µg/mL,25 µg/mL,,1.56 µg/mL,,1.56 µg/mL,,0.05 µg/mL,0.78 µg/mL,0.2 µg/mL,≤ 0.025 µg/mL,0.05 µg/mL,0.05 µg/mL,0.1 µg/mL,0.78 µg/mL,≤ 0.025 µg/mL,,,,
"CO/N=C(\C(=O)N[C@@H]1C(=O)N2C(C(=O)[O-])=C(C[n+]3cccc4c3CCC4)CS[C@H]12)c1csc(N)n1 [CPR, Cefpirome, reference compound]",,50 µg/mL,0.39 µg/mL,,,,,≤ 0.025 µg/mL,,0.2 µg/mL,0.05 µg/mL,≤ 0.025 µg/mL,0.05 µg/mL,0.05 µg/mL,0.2 µg/mL,0.05 µg/mL,6.25 µg/mL,3.13 µg/mL,3.13 µg/mL,
"NC(=O)c1csc2c[n+](CC3=C(C(=O)[O-])N4C(=O)[C@@H](NC(=O)/C(=N\OCCF)c5nsc(N)n5)[C@H]4SC3)cn12 [Example 48, (6R,7R)-7-[(Z)-2-(5-Amino-2,4-thiadiazol-3-yl)-2-(2-fluoroethoxyimino)acetamide]-3-(3-carbamoylimidazo[5,1-b]thiazolium-6-yl)methyl-3-cephem-4-carboxylate]",,12.5 µg/mL,0.39 µg/mL,,,,0.39 µg/mL,≤ 0.025 µg/mL,,0.2 µg/mL,≤ 0.025 µg/mL,≤ 0.025 µg/mL,≤ 0.025 µg/mL,0.1 µg/mL,,≤ 0.025 µg/mL,6.25 µg/mL,0.78 µg/mL,0.78 µg/mL,
CO/N=C(\C(=O)N[C@@H]1C(=O)N2C(C(=O)[O-])=C(C[n+]3cc4sccn4c3CO)CS[C@H]12)c1nsc(N)n1 [Example 31],,12.5 µg/mL,,,0.39 µg/mL,,,0.05 µg/mL,0.78 µg/mL,,≤ 0.025 µg/mL,0.05 µg/mL,0.05 µg/mL,0.1 µg/mL,0.78 µg/mL,0.05 µg/mL,6.25 µg/mL,3.13 µg/mL,3.13 µg/mL,
